Like-named read-outs stand apart in the source and are kept apart here. Square brackets hold non-standard residues; d marks the D form. Peptide text beside a SMILES is read from it. Orn = NCCC[C@H](N)C(=O)O

One data set concerns CQR P. falciparum Dd2. Nature of the data set: microbe, parasite or virus in culture. The format is cell-based, Plasmodium falciparum. Particulars: for IC50: 48 h, Malstat, ± SEM, read-out: IC50, CQR P. falciparum Dd2; for Resistance Index IC50Dd2/IC503D7: first value of cell; for Resistance Index IC50Dd2/IC50D10: second value of cell. Here is the method: (§1) The antimalarial assays were carried out according to the method of Nkhoma et al.. […] On the day of the assay, the parasitemia was determined following observation by light microscopy after Giemsa staining of a thin blood smear from the culture. The cultures at young trophozoite stage were diluted to 2% parasitemia and 2% hematocrit by addition of fresh RPMI medium and uninfected erythrocytes. This culture suspension was distributed in 96-well culture plates at 90 µL/well. […] Peptide solvent and medium (10 µL/well) was used as sterility control and in growth control and 10 μL 1.0 mM GS was used as positive control. Assays were carried out in at least three biological repeats each consisting of three technical repeats to ascertain reproducibility.
(§2) The culture suspension was frozen away at −20 °C until determination of the residual lactate dehydrogenase activity of the parasites by the Malstat assay, as adapted from Gomez et al..
(§3) For the Malstat assay, the plates were transferred to −80 °C for 1 h following overnight storage at −20 °C to ensure that all the suspensions in each well of the 96-well plate were frozen. The plates were then thawed at room temperature. The Malstat reagent consisted of 200 μL Triton X-100, 2 g L-lactic acid (substrate), 0.66 g Tris-HCl buffer and 0.011 g of 3-acetylpyridine adenine dinucleotide (APAD) (coenzyme for parasite lactate dehydrogenase) in 100 mL analytical quality water set to a pH of 9.0 [93]. […] A 15 µL aliquot of the thawed and properly mixed suspension from the assay plates was added to 100 µL of the Malstat reagent, followed by addition of 25 µL of the NBT/PES solution. The reaction mixtures were then incubated at room temperature in the dark for 30 min followed by spectrophotometric measurement of the absorbance of the reduced APAD at 620 nm using a Model 680 Microplate reader from BioRad.
(§4) The data obtained from spectrophotometric measurement of the plates following the lactate dehydrogenase (Malstat) assay were converted to percentage growth inhibition using the data analysis method described by Rautenbach et al.. The background was obtained from control wells in which the parasites were killed with 100 µM GS while total growth was from the wells that were not submitted to peptides. […] The percentage COS-1 cell death (CellTiter Blue™ assay) was similarly calculated from absorbance values.

Another data set relates to CQS P. falciparum 3D7. Nature of the data set: microbe, parasite or virus in culture. The format is cell-based, Plasmodium falciparum. Here is the method:
as §1, §2, §3, §4

Data set [1] can be described thus: Toxicity to COS-1 cells, CellTiter Blue viability. The format is cell-based. Particulars: African green monkey, resazurin (CellTiter Blue), read-out: Toxicity LC50, COS Cells. Here is the method: COS-1 cells were cultured in DMEM containing 0.9 g/L glucose, 0.12% NaHCO3, 10% fetal calf serum and 1% penicillin–streptomycin at 37 °C and under an atmosphere of 5% CO2 [95]. Twenty hours before the assay, the cells were transferred to 96-well plates at a density of 1.5 × 10^4 cells/well. The peptides from the dilution series were added to each well and incubated for 24 h. The cell viability was measured by adding 20 μL/well resazurin reagent (CellTiter Blue™), followed by four hours incubation at room temperature in the dark and measurement of the absorbance at 560 nm and 600 nm in the BioRad microplate reader.
(§5) The data obtained from spectrophotometric measurement of the plates following the lactate dehydrogenase (Malstat) assay were converted to percentage growth inhibition using the data analysis method described by Rautenbach et al.. The background was obtained from control wells in which the parasites were killed with 100 µM GS while total growth was from the wells that were not submitted to peptides. The background for the hemolysis evaluation was from wells in which the uninfected erythrocytes were lysed using 100 µM GS while growth control was from the wells with uninfected erythrocytes that received no peptides. The percentage COS-1 cell death (CellTiter Blue™ assay) was similarly calculated from absorbance values. All the dose–response assay data were evaluated using GraphPad Prism 4.03 (GraphPad Software, San Diego, CA, USA) followed by non-linear regression and sigmoidal curves were fitted (having variable slope and a constant difference of 100 between the top and bottom plateau). Following calculation of the 50% P. falciparum inhibitory concentration (IC50), 50% hemolytic concentration (HC50) and 50% lethal concentration (LC50) for COS-1 cells.

Data set [2] relates to P. falciparum D10. Nature of the data set: Parasite stage distribution, Giemsa staining and light microscopy. The class given is cell-based, Plasmodium falciparum. Particulars: 200 nM, synchronized trophozoite stage cultures, 0 to 48 h. How it is done:
For light microscopy, following addition of TpcC, aliquots were collected from the cultures at different time-points for preparation of Giemsa-stained blood smears. The assay was carried out in duplicate and lactate dehydrogenase activity of the residual cultures was determined after 48 h.

The test system of data set [3] is P. falciparum D10. The data set can be described thus: Super-resolution structured illumination fluorescence microscopy (SR-SIM) of parasite morphology. The class given is cell-based, Plasmodium falciparum. How it is done:
Prior to staining for fluorescence microscopy, the cultures were centrifuged at 300× g for 4 min, then the supernatant was discarded and cells were suspended to the same percentage hematocrit in a solution made of one part analytical quality water and three parts sterile PBS (pH 7.2–7.3) in order to reduce solute concentration.
The fluorescence microscopy involved staining suspended cultures (TpcC treated and untreated) prepared as described above (except for not being synchronized within the last 48 h of culturing) with combinations of trypan blue (red fluorescence) and either SYTO® 9 green-fluorescent nucleic acid stain or LipidTOX™ neutral lipid stain (green fluorescence). To view the neutral lipids, the cells were stained with LipidTOX™ (stock solution dilution at 1:200), incubated for 30 min at room temperature before staining with trypan blue at final concentration of 0.002% v/v. For nucleic acid staining, the cells were stained with SYTO® 9 (stock solution dilution at 1:1000) and trypan blue at final concentration of 0.002% v/v and incubated at room temperature for 15 min. Super-resolution structured illumination (SR-SIM) fluorescence microscopy was carried out as follows: thin ([…]) z-stacks of high-resolution image frames were accumulated in 5 rotations using an alpha Plan-Apochromat 100×/1.46 oil DIC M27 ELYRA objective, employing an ELYRA S.1 (Carl Zeiss Microimaging) microscope equipped with a 488 nm laser (100 mW), 561 nm laser (100 mW) and Andor EM-CCD camera (iXon DU 885). Images were […] using ZEN software (black edition, 2011, version 7.04.287) based on a structured illumination algorithm. Image projections and animations were carried out on reconstructed super-resolution images in ZEN.

The next data set deals with human erythrocytes. The data set can be described thus: Hemolytic activity. The class given is cell-based. Particulars: 2% hematocrit, 1 h at 37 °C, ± SEM. Here is the method: To determine the hemolytic activity of the peptides, the duplicate 96-well plates with samples added to 90 μL 2% hematocrit per well were incubated for one hour at 37 °C and centrifuged using a swing-out rotor at 200× g for 3 min. The supernatant was diluted 1:8 in analytical quality water in separate 96-well plates and after mixing, the absorbance of the suspension was determined at 405 nm.
as §5

[4] abbreviates: 48 h, Malstat, ± SEM, read-out: IC50, CQS P. falciparum 3D7.

As for `CC(C)C[C@@H]1NC(=O)[C@H](CCCN)NC(=O)[C@H](C(C)C)NC(=O)[C@H](Cc2c[nH]c3ccccc23)NC(=O)[C@H](CCC(N)=O)NC(=O)[C@H](CC(N)=O)NC(=O)[C@@H](Cc2c[nH]c3ccccc23)NC(=O)[C@H](Cc2c[nH]c3ccccc23)NC(=O)[C@@H]2CCCN2C(=O)[C@@H](Cc2ccccc2)NC1=O` [TpcC, tryptocidine C] (cyclo(L[dF]PW[dW]NQWV[Orn])), in the data set on CQR P. falciparum Dd2, the half-maximal inhibitory concentration (IC50) was determined as 398 ± 94 nM, the “Resistance Index IC50Dd2/IC503D7” value worked out at 3 and the “Resistance Index IC50Dd2/IC50D10” value stood at 9. Further, the concentration for half-maximal inhibition (IC50) with CQS P. falciparum 3D7 (setting [4]) was determined as 126 ± 28 nM. Besides, the CC50 at 24 h in data set [1] was determined as 10000 nM. Further, the “effect on parasite stage progression” value with P. falciparum D10 [2] is “delay in the occurrence of the schizont stage”. The “permeabilization or lysis of parasite and erythrocyte membranes (trypan blue leakage)” value in the data set with P. falciparum D10 [3] (lethal concentration of 200 nM) is “none of the parasite membranes or erythrocyte membrane was permeabilized or lysed”. The “chromatin morphology (SYTO9 nuclear staining)” value in the data set with P. falciparum D10 [3] (post 6 h treatment) was “abnormality in the packing or compactness of the chromatin”. Further, the “neutral lipid structures (LipidTOX stain)” value in the data set on P. falciparum D10 [3] (trophozoite stage cultures, after 5 h in culture) is “the lipid structures were distorted and diffused”. Moreover, the “HC50, Erythrocytes” value with human erythrocytes was 9.1 ± 1.5 (4) μM.

With `CC(C)C[C@@H]1NC(=O)[C@H](CCCN)NC(=O)[C@H](C(C)C)NC(=O)[C@H](Cc2ccc(O)cc2)NC(=O)[C@H](CCC(N)=O)NC(=O)[C@H](CC(N)=O)NC(=O)[C@@H](Cc2ccccc2)NC(=O)[C@H](Cc2ccccc2)NC(=O)[C@@H]2CCCN2C(=O)[C@@H](Cc2ccccc2)NC1=O` [TrcA, tyrocidine A] (cyclo(V[Orn]L[dF]PF[dF]NQY)), the results for the 50% inhibitory concentration (IC50) in the data set with CQR P. falciparum Dd2 and in the data set with CQS P. falciparum 3D7 (setting [4]) were 1800 ± 319 nM and 41 ± 12 nM, respectively. Besides, the CC50 at 24 h in data set [1] stood at 6000 nM.

In the case of `CC(C)C[C@@H]1NC(=O)[C@H](CCCN)NC(=O)[C@H](C(C)C)NC(=O)[C@H](Cc2ccccc2)NC(=O)[C@H](CCC(N)=O)NC(=O)[C@H](CC(N)=O)NC(=O)[C@@H](Cc2ccccc2)NC(=O)[C@H](Cc2ccccc2)NC(=O)[C@@H]2CCCN2C(=O)[C@@H](Cc2ccccc2)NC1=O` [PhcA, phenycidine A] (cyclo(FV[Orn]L[dF]PF[dF]NQ)), in the data set on CQR P. falciparum Dd2, the half-maximal inhibitory concentration (IC50) was determined as 511 ± 96 nM, the “Resistance Index IC50Dd2/IC503D7” value is reported as 22 and the “Resistance Index IC50Dd2/IC50D10” value was 10. The concentration for half-maximal inhibition (IC50) in the data set with CQS P. falciparum 3D7 (CQS 3D7, 48 h) was determined as 23 ± 7 nM. Besides, the CC50 at 24 h in data set [1] was determined as 8000 nM. Also, in the data set on human erythrocytes, the “HC50, Erythrocytes” value was 7.1 ± 1.6 (8) μM.
